Key:
Cruzain = Cruzain (Trypanosoma cruzi, UniProt P25779); assay: Cysteine protease inhibition, progress curve method, cruzain; assay type: biochemical; details: 4 uM Ac-Lys-Glu-Lys-Leu-Arg-AMC, 100 mM Na acetate pH 5.5, 5 mM cysteine; read-out: Cruzain Ki
Procedure, shortened: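 Buffer was 100 mM sodium acetate pH 5.5 with 5 mM cysteine and 2% DMSO, at ambient temperature; reactions started with enzyme, and AMC formation was followed for 20–30 min. Substrates: Leishmania and Schistosoma, 10 uM Cbz-Phe-Arg-AMC; falcipain, 10 uM Cbz-Leu-Arg-AMC; cruzain, 4 uM Ac-Lys-Glu-Lys-Leu-Arg-AMC. Linear curves gave Ki,app; curved ones gave kobs/[I].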

Falcipain 2 = Falcipain 2 (Plasmodium falciparum, UniProt Q8I6U4); assay: Cysteine protease inhibition, progress curve method, falcipain; assay type: biochemical; details: 10 uM Cbz-Leu-Arg-AMC, 100 mM Na acetate pH 5.5, 5 mM cysteine
Falcipain 2, sequence (Q8I6U4 244-484): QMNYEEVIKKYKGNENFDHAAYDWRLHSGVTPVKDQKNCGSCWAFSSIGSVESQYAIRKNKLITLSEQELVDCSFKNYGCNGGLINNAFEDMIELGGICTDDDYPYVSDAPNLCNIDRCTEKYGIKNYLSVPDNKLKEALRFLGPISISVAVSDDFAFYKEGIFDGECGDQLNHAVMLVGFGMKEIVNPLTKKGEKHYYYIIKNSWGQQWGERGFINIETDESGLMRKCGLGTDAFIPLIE
Experimental: Standard assay conditions for the determination of kinetic constants used 10 uM fluorogenic peptide substrate, Cbz-Phe-Arg-AMC for the cysteine proteases from Leishmania spp and Schistosoma Mansoni, Cbz-Leu-Arg-AMC for the cysteine proteases from Plasmodium falciparum and Trypanosoma brucei rhodesiensi, and Ac-Lys-Glu-Lys-Leu-Arg-AMC (4 uM final substrate concentration) for the cysteine protease from Trypoanosoma cruzi, and were determined in 100 mM Na acetate at pH 5.5 containing 5 mM cysteine. Stock substrate solutions were prepared at concentrations of […] in DMSO with 10 uM (4 uM for Ac-Lys-Glu-Lys-Leu-Arg-AMC) final substrate concentration in the assays. The final DMSO concentration was 2% and the final volume was 100 uL. All assays were conducted at ambient temperature. Product progress curves were generated over 20 to 30 minutes following formation of AMC product.
Potential inhibitors were evaluated using the progress curve method. Assays were carried out in the presence of variable concentrations of test compound. Reactions were initiated by addition of enzyme to buffered solutions of inhibitor and substrate. Data analysis was conducted according to one of two procedures depending on the appearance of the progress curves in the presence of inhibitors. For those compounds whose progress curves were linear, apparent inhibition constants (Ki,app) were calculated according to equation 1 (Brandt et al., Biochemitsry, 1989, 28, 140):
v=VmA/[Ka(1+I/Ki,app)+A] (1)
Where v is the velocity of the reaction with maximal velocity Vm, A is the concentration of substrate with Michaelis constant of Ka, and I is the concentration of inhibitor.
[AMC]=vsst+(v0−vss)[1−exp (−kobst)]/kobs (2)
Where [AMC] is the concentration of product formed over time t, v0 is the initial reaction velocity and vss is the final steady state rate. Values for kobs were then analyzed as a linear function of inhibitor concentration to generate an apparent second order rate constant (kobs/inhibitor concentration or kobs/[I]) describing the time-dependent inhibition. A complete discussion of this kinetic treatment has been fully described (Morrison et al., Adv. Enzymol. Relat. Areas Mol. Biol., 1988, 61, 201).
Exemplary inhibition data for the compounds used in the present method collected in accordance with the above-described procedure are listed in Table I.

Rhodazain = Rhodazain (Trypanosoma brucei rhodesiense, UniProt Q95PM0); assay: Cysteine protease inhibition, progress curve method, rhodazain; assay type: biochemical, Trypanosoma brucei rhodesiensi; details: Rhodazain Ki (nM), 10 uM Cbz-Leu-Arg-AMC, 100 mM Na acetate pH 5.5, 5 mM cysteine
Rhodazain, sequence (Q95PM0 entry or part of it): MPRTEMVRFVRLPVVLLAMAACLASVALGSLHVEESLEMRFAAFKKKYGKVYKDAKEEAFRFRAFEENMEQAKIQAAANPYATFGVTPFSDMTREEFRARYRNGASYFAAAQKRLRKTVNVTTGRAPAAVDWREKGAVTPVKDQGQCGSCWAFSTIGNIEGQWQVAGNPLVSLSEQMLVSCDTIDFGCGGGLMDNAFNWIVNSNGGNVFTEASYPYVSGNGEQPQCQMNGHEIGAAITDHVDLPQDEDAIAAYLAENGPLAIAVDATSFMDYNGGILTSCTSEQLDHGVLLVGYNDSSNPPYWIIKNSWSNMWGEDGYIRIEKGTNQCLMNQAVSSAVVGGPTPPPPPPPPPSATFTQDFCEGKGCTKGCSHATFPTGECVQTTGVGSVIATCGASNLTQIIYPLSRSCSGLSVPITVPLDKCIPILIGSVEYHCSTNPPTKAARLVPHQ

Cruzain, sequence (P25779 123-337): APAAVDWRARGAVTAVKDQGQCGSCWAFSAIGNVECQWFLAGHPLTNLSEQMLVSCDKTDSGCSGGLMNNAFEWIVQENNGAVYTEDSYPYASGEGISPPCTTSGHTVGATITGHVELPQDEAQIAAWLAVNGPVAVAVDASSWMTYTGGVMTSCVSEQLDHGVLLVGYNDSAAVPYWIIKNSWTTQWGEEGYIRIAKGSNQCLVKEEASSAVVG

Question: How did the Ki (Cruzain) turn out when COc1ccc2oc(C(=O)N[C@H](CC(C)C)C(=O)N[C@@H]3CCCN(S(=O)(=O)c4ncccc4C)CC3=O)cc2c1 (stereo in doubt) [Example 162, 5-Methoxy-benzofuran-2-carboxylic acid {(S)-3-methyl-1-[1-(3-methyl-pyridine-2-sulfonyl)-3-oxo-azepan-4-ylcarbamoyl]-butyl}amide] was run?
Answer: 2.7 nM

Question: And the Ki (Falcipain 2)?
Answer: 6.1 nM

Question: And the Ki (Rhodazain)?
Answer: 2.5 nM

Question: What does the source list for CC(C)C[C@H](NC(=O)c1cccc2ncccc12)C(=O)N[C@H]1CCCN(S(=O)(=O)c2ccccn2)CC1=O [Example 185, Quinoline-5-carboxylic acid {(S)-3-methyl-1-[3-oxo-1-(pyridine-2-sulfonyl)-azepan-4-ylcarbamoyl]-butyl}-amide]?
Answer: Ki (Cruzain): 1.8 nM; Ki (Falcipain 2): 4.4 nM; Ki (Rhodazain): 2.1 nM

Question: Which Ki (Cruzain) does the source give for Cc1c(C(=O)N[C@@H](CC(C)C)C(=O)N[C@H]2C[C@H](C)CN(S(=O)(=O)c3ccccn3)CC2=O)oc2ccccc12 [Example 199, 3-Methyl-benzofuran-2-carboxylic acid {(S)-3-methyl-1-[6-methyl-3-oxo-1-(pyridine-2-sulfonyl)-azepan-4-ylcarbamoyl]-butyl}-amide] here?
Answer: 2.3 nM

Question: What about the Ki (Falcipain 2) of the same compound?
Answer: 5.6 nM

Question: And the Ki (Rhodazain)?
Answer: 2 nM

Question: CC(C)C[C@@H](NC(=O)c1ccnc2ccccc12)C(=O)N[C@@H]1CCCN(S(=O)(=O)c2ccccn2)CC1=O (single isomer, unassigned) [Example 153] was tested. Which Ki (Cruzain) did it give?
Answer: 2.4 nM

Question: And the Ki (Falcipain 2)?
Answer: 4.5 nM

Question: And the Ki (Rhodazain)?
Answer: 1.6 nM

Question: Which results are given for CC(C)C[C@H](NC(=O)c1cc2ccccc2o1)C(=O)N[C@H]1CCCN(S(=O)(=O)c2cn(C)cn2)CC1=O [Example 42, Benzofuran-2-carboxylic acid {(S)-3-methyl-1-[1-(1-methyl-1H-imidazole-4-sulfonyl)-3-oxo-azepan-4-ylcarbamoyl]-butyl}amide]?
Answer: Ki (Cruzain): 2 nM; Ki (Falcipain 2): 5.3 nM; Ki (Rhodazain): 1.8 nM

Question: COc1ccc2oc(C(=O)N[C@@H](CC(C)C)C(=O)N[C@H]3CCCN(C(=O)Nc4ccccc4F)CC3=O)cc2c1 [Example 221, 5-Methoxy-benzofuran-2-carboxylic acid {(S)-1-[1-(2-fluoro-phenylcarbamoyl)-3-oxo-azepan-4-ylcarbamoyl]-3-methyl-butyl}-amide] was tested. Which Ki (Cruzain) did it give?
Answer: 3 nM

Question: And the Ki (Falcipain 2)?
Answer: 2 nM

Question: What about the Ki (Rhodazain) of the same compound?
Answer: 1.2 nM

Question: Which results are given for CC(C)C[C@H](NC(=O)c1cc2sccc2s1)C(=O)N[C@H]1CCCN(C(=O)Nc2ccccc2F)CC1=O [Example 218, Thieno[3,2-b]thiophene-2-carboxylic acid {(S)-1-[1-(2-fluoro-phenylcarbamoyl)-3-oxo-azepan-4-ylcarbamoyl]-3-methyl-butyl}-amide]?
Answer: Ki (Cruzain): 5.4 nM; Ki (Falcipain 2): 3.1 nM; Ki (Rhodazain): 2.3 nM

Question: What does the source list for CC(C)C[C@@H](NC(=O)c1ccc2ncccc2c1)C(=O)N[C@@H]1CCCN(S(=O)(=O)c2ccccn2)CC1=O (single isomer, unassigned) [Example 152]?
Answer: Ki (Cruzain): 2 nM; Ki (Falcipain 2): 3.1 nM; Ki (Rhodazain): 1.6 nM

Question: What does the source list for COc1ccc2oc(C(=O)N[C@@H](CC(C)C)C(=O)N[C@H]3C[C@H](C)CN(S(=O)(=O)c4ccccn4)CC3=O)cc2c1 [Example 198, 5-Methoxy-benzofuran-2-carboxylic acid {(S)-3-methyl-1-[6-methyl-3-oxo-1-(pyridine-2-sulfonyll)-azepan-4-ylcarbamoyl]-butyl}-amide]?
Answer: Ki (Cruzain): 1.9 nM; Ki (Falcipain 2): 3.6 nM; Ki (Rhodazain): 1.6 nM

Question: For CC(C)C[C@@H](NC(=O)c1ccc2[nH]ccc2c1)C(=O)NC1CCCN(S(=O)(=O)c2cccc[n+]2[O-])CC1=O (single isomer, unassigned) [Example 64], which Ki (Cruzain) is on record?
Answer: 4.1 nM

Question: What about the Ki (Falcipain 2) of the same compound?
Answer: 6.2 nM

Question: What about the Ki (Rhodazain) of the same compound?
Answer: 2.7 nM

Question: For Cc1csc(C(=O)NC(CC(C)C)C(=O)N[C@H]2CCCN(C(=O)Nc3ccccc3F)CC2=O)c1 (stereo partly drawn) [Example 220, 4-Methyl-2-carboxylic acid {(S)-1-[-(2-fluoro-phenylcarbamoyl)-3-oxo-azepan-4-ylcarbamoyl]-3-methyl-butyl}-amide], which Ki (Cruzain) is on record?
Answer: 8.7 nM

Question: And the Ki (Falcipain 2)?
Answer: 3.9 nM

Question: And the Ki (Rhodazain)?
Answer: 4.2 nM

Question: With COc1cccc2cc(C(=O)N[C@@H](CC(C)C)C(=O)N[C@H]3CCCN(S(=O)(=O)c4ccccc4F)CC3=O)oc12 [Example 93, 7-Methoxy-benzofuran-2-carboxylic acid-{(S)-1-[1-(2-fluoro-benzenesulfonyl)-3-oxo-azepan-4-ylcarbamoyl]-3-methyl-butyl}-amide] as the compound, how does the Ki (Cruzain) read?
Answer: 11 nM

Question: What about the Ki (Falcipain 2) of the same compound?
Answer: 7 nM

Question: And the Ki (Rhodazain)?
Answer: 11 nM

Question: Which results are given for CC(C)C[C@H](NC(=O)c1cc2ccccc2s1)C(=O)N[C@H]1C[C@H](C)CN(S(=O)(=O)c2ccccn2)CC1=O [Example 197, Benzo[b]thiophene-2-carboxylic acid {(S)-3-methyl-1-[6-methyl-3-oxo-1-(pyridine-2-sulfonyl)-azepan-4-ylcarbamoyl]-butyl}-amide]?
Answer: Ki (Cruzain): 3.1 nM; Ki (Falcipain 2): 4.1 nM; Ki (Rhodazain): 2.3 nM

Question: What does the source list for CC(C)C[C@@H](NC(=O)c1ccc2c(c1)OCO2)C(=O)N[C@@H]1CCCN(S(=O)(=O)c2ccccn2)CC1=O (stereo in doubt) [Example 59, Benzo[1,3]dioxole-5-carboxylic acid {(S)-3-methyl-1-[3-oxo-1-(pyridine-2-sulfonyl)-azepan-4-ylcarbamoyl]-butyl}amide]?
Answer: Ki (Cruzain): 3.4 nM; Ki (Falcipain 2): 3.4 nM; Ki (Rhodazain): 2.4 nM

Question: How did the Ki (Cruzain) turn out when COc1cccc2cc(C(=O)N[C@H](CC(C)C)C(=O)N[C@H]3CCCN(S(=O)(=O)c4ccccn4)CC3=O)oc12 [Example 164] was run?
Answer: 4.2 nM

Question: What about the Ki (Falcipain 2) of the same compound?
Answer: 2.2 nM

Question: What about the Ki (Rhodazain) of the same compound?
Answer: 5.1 nM

Question: CC(C)C[C@@H](NC(=O)c1cc2ccccc2o1)C(=O)NC1CCCN(S(=O)(=O)c2ccccn2)CC1=O (single isomer, unassigned) [Example 21] was tested. Which Ki (Cruzain) did it give?
Answer: 3.8 nM

Question: What about the Ki (Falcipain 2) of the same compound?
Answer: 10 nM

Question: What about the Ki (Rhodazain) of the same compound?
Answer: 3.2 nM

Question: With CC(C)CC(NC(=O)c1cc2ccccc2o1)C(=O)N[C@H]1CCCN(S(=O)(=O)c2nccn2C)CC1=O (stereo partly drawn) [Example 40] as the compound, how does the Ki (Cruzain) read?
Answer: 2.3 nM

Question: And the Ki (Falcipain 2)?
Answer: 4.5 nM

Question: What about the Ki (Rhodazain) of the same compound?
Answer: 2 nM

Question: Which results are given for COc1cc2cc(C(=O)N[C@@H](CC(C)C)C(=O)NC3CCCN(S(=O)(=O)c4cn(C)cn4)CC3=O)oc2cc1OC (stereo partly drawn) [Example 39, 5,6-Dimethoxy-benzofuran-2-carboxylic acid {(S)-3-methyl-1-[3-oxo-1-(1-methyl-1H-imidazole-4-sulfonyl)-azepan-4-ylcarbamoyl]-butyl}amide]?
Answer: Ki (Cruzain): 7.4 nM; Ki (Falcipain 2): 3.9 nM; Ki (Rhodazain): 2.2 nM

Question: What does the source list for COc1cc2cc(C(=O)N[C@H](CC(C)C)C(=O)N[C@H]3CCCN(S(=O)(=O)c4ccccn4)CC3=O)sc2cc1OC (single isomer, unassigned) [Example 165]?
Answer: Ki (Cruzain): 5.5 nM; Ki (Falcipain 2): 2.5 nM; Ki (Rhodazain): 2.1 nM

Question: What does the source list for CC(C)C[C@@H](NC(=O)c1cnc2ccccc2c1)C(=O)N[C@@H]1CCCN(S(=O)(=O)c2ccccn2)CC1=O (single isomer, unassigned) [Example 156]?
Answer: Ki (Cruzain): 4.1 nM; Ki (Falcipain 2): 6.2 nM; Ki (Rhodazain): 2.6 nM

Question: How did the Ki (Cruzain) turn out when COc1ccc2oc(C(=O)N[C@@H](CC(C)C)C(=O)N[C@H]3CCCN(S(=O)(=O)c4nccs4)CC3=O)cc2c1 [Example 124, 5-Methoxybenzofuran-2-carboxylic acid {(S)-3-methyl-1-[3-oxo-1-(thiazole-2-sulfonyl)-azepan-4-ylcarbamoyl]-buty}amide] was run?
Answer: 2 nM

Question: What about the Ki (Falcipain 2) of the same compound?
Answer: 4.9 nM

Question: What about the Ki (Rhodazain) of the same compound?
Answer: 2.2 nM

Question: How did the Ki (Cruzain) turn out when CC(C)CC(NC(=O)c1ccc2c(c1)OCO2)C(=O)N[C@@H]1CCCN(S(=O)(=O)c2cccc[n+]2[O-])CC1=O (single isomer, unassigned) [Example 76] was run?
Answer: 14 nM

Question: What about the Ki (Falcipain 2) of the same compound?
Answer: 7.8 nM

Question: What about the Ki (Rhodazain) of the same compound?
Answer: 5.4 nM

Question: For CC(C)CC(NC(=O)c1ccc2c(c1)OCCCO2)C(=O)N[C@@H]1CCCN(S(=O)(=O)c2cccc[n+]2[O-])CC1=O (single isomer, unassigned) [Example 78], which Ki (Cruzain) is on record?
Answer: 4.4 nM

Question: What about the Ki (Falcipain 2) of the same compound?
Answer: 7.1 nM

Question: And the Ki (Rhodazain)?
Answer: 4.6 nM

Question: CC(C)C[C@H](NC(=O)c1cc2ccccc2s1)C(=O)N[C@H]1CCCN(S(=O)(=O)c2nccs2)CC1=O [Example 127, Benzo[b]thiophene-2-carboxylic acid {(S)-3-methyl-1-[3-oxo-1-(thiazole-2-sulfonyl)-azepan-4-ylcarbamoyl]-butyl}amide] was tested. Which Ki (Cruzain) did it give?
Answer: 2.8 nM

Question: What about the Ki (Falcipain 2) of the same compound?
Answer: 8.1 nM

Question: What about the Ki (Rhodazain) of the same compound?
Answer: 4.7 nM

— patent US20030044399A1, “Method of treatment” (SmithKline Beecham Corporation, priority 1998, published 2003)
